Assay results: patent publication US9790378B2, “Vapor source using solutions of precursors in terpenes” (President and Fellows of Harvard College, priority 2010, dated 2017)

Description: [drawing 8] was dissolved in alloocimene.
Examples 1 and 2 were repeated except that dodecane was used as a solvent in place of alloocimene or farnesenes.
[drawing 9] is dissolved in mixed isomers of farnesene.
[drawing 10] is dissolved in mixed isomers of farnesenes.
[drawing 11] is dissolved in mixed isomers of farnesenes.
[drawing 12] is dissolved in alloocimene.
[drawing 13] is dissolved in mixed isomers of farnesene.

| Substance | solubility (in words) |
| --- | --- |
| bis(N,N′-diisopropylacetamidinato)cobalt(II) | high |
| bis(N,N′-diisopropylpentamidinato)manganese(II) | high |
| copper(I) (N,N′-di-sec-butylacetamidinate) | high |
| tris(N,N′-diisopropylacetamidinato)yttrium(III) | high |
| tris(N,N′-diisopropylformamidinato)lanthanum(III) | high |
